One assay relates to NMRI-Mäusen. The assay is described as follows: Sedative effect: inhibition of novelty-induced orientation hypermotility (photoelectric measurement). The format is in vivo. As to conditions: for ED50: Mus musculus, 0.5 h, oral, female NMRI mice, measured 30 min after dosing for 30 min, dose giving 50 % decrease of orientation hypermotility, read-out: Sedation ED50; for Sedation R.W.: relative Wirksamkeit = ED50 Vergleichssubstanz / ED50 Beispiel, Clozapin = 1,0. The protocol:
4 bis 8 Gruppen von Jeweils 3 weiblichen NMRI-Mäusen erhalten die Substanzen oral appliziert. Die photoelektrische Bestimmung der durch eine neue Umgebung induzierten Orientierungshypermotilität erfolgt 30 min nach der Applikation der Substanzen für eine Dauer von 30 min. " Als ED50 wird die Dosis bestimmt, welche im Ver- gleich zu Placebo-behandelten Kontrolltieren eine Abnahme der Orientierungshypermotilität um 50 % bewirkt.

For another assay, the system named is Kaninchens. The assay is described as follows: Muscle-relaxant effect: tonic stretch reflex of the gastrocnemius. Type of assay: in vivo, Kaninchen. As to conditions: for ED50: Oryctolagus cuniculus, rabbit, intravenous, tonic stretch reflex impulse counts relative to pre-dose values, read-out: Muskelrelaxation ED50; for Muskelrelaxation R.W.: relative Wirksamkeit = ED50 Vergleichssubstanz / ED50 Beispiel, Clozapin = 1,0. An excerpt: 2. […] auf der Quantifizierung des tonischen Dehnungsreflexes am Gastocnemius des […] et al., Arch. Pharmacol. exp. Path. 266, 462, 1970). Das Kaninchen wird in einer speziellen Apparatur fixiert, die es erlaubt, die Pfote im Sprunggelenk in […] und reproduzierbarer Weise zu beugen. Durch die Beugung wird in der Wadenmuskulatur ein tonischer Dehnungsreflex ausgelöst. Die […] des Muskels während der Kontraktion wird registriert und die Einzelimpulse gezählt. Die Dehnung (Dauer 5 s) wird in Minutenabständen wiederholt. Nach Erreichen einer konstanten Impulszahl (Kontrollwert) wird die Testsubstanz intravenös appliziert. Die Impulszahlen nach Applikation werden auf die Vorwerte bezogen.

Assay [1] deals with Ratten. The assay is described as follows: Antimethamphetamine effect: suppression of methamphetamine-induced sniffing. Type of assay: in vivo. As to conditions: for ED50: ip, 0.5 h, rat, intraperitoneal 30 min before Methamphetamin . HCl 2,5 mg/kg i.v., absence of sniffing within 5 min, probit analysis, read-out: Methamphetaminantagonismus ED50; for Methamphetaminantagonismus R.W.: relative Wirksamkeit = ED50 Vergleichssubstanz / ED50 Beispiel, Clozapin = 1,0.
Experimental: Antimethamphetamin-Wirkung
Methamphetamin . […] Die Prüfsubstanzen werden 30 min vor Methamphetamin intraperitoneal verabfolgt. Kriterium für einen Substanzeffekt ist das Ausbleiben der Schnüffelbewegungen innerhalb eines 5-minütigen Beobachtungszeitraumes nach Meth- amphetamin-Injektion. Als mittlere Hemmdosis (ED50) ' wird mittels Probitanalyse die Dosis ermittelt, die das Symptom bei der Hälfte der Tiere verhindert.

Assay [2] relates to Ratten. As to the kind of experiment: Central anticholinergic effect: suppression of pilocarpine-induced scratching. The format is in vivo. As to conditions: for ED50: ip, 0.5 h, rat, intraperitoneal 30 min before Pilocarpin . HCl 50 mg/kg i.v., absence of scratching within 2 min, probit analysis, read-out: Zentral-anticholinerge Wirkung ED50; for Zentral-anticholinerge Wirkung R.W.: relative Wirksamkeit = ED50 Vergleichssubstanz / ED50 Beispiel, Clozapin = 1,0. The protocol: 4. Zentral-anticholinerge Wirkung
Zur Prüfung auf zentrale anticholinerge Wirkung wird durch Pilocarpin eine cholinerge Stimulierung ausgelöst. Ratten zeigen nach rascher intravenöser Injektion von Pilocarpin . HC1 (50 mg/kg) alternierende Kratzbewegungen der Hinterpfoten; weitere zentral ausgelöste Symptome sind Kieferbewegungen und Tremor. ALs Zeichen peripherer übererregung können Speichelfluß und Chromodakryorrhoe beobachtet werden (Kreiskott, Arch. exp. Path. Pharmak. 247, 317, 1964). Die Prüfsubstanzen werden 30 min vor Pilocarpin intraperitoneal verabfolgt. Kriterium für einen Substanzeffekt ist das Ausbleiben des Kratzens innerhalb 2 min nach Pilocarpin-Injektion. Für dieses Symptom wird als mittlere Hemmdosis (ED50) mittels Probitanalyse nach Finney diejenige Dosis der Prüfsubstanz ermittelt, welche die Kratzabläufe bei der Hälfte der Tiere unterdrückt.

Experimental findings from EP0050212A1, “5-Substituted-9-cyane-methylene-dithieno(3,4-b:4',3'-e) azepines, process for their preparation and pharmaceutical compositions containing them” (BASF Aktiengesellschaft, priority 1980, dated 1982) are described below.

`CN1CCN(C2=Nc3c(csc3Cl)C(=CC#N)c3cscc32)CC1` (mixture of isomers) [Beispiel 2, cis, trans-3-Chlor-9-cyanmethyl en-5-(4-methylpiperazin-1--yl)-dithieno[3.4-b:4'.3'-e]azepin]: in the assay on NMRI-Mäusen, the median effective dose (ED50) stood at 9.6 mg/kg and the “Sedation R.W.” value is on record as 0,49. For the same compound, in the assay on Kaninchens, the 50% effective dose (ED50) was 0.08 mg/kg and the “Muskelrelaxation R.W.” value is listed as 0,56.

Regarding `CCN1CCN(C2=Nc3cscc3C(=CC#N)c3cscc32)CC1` (mixture of isomers) [Beispiel 6, cis, trans-9-Cyanmethylen-5-(4-äthyl-piperazin-1-yl)-di-thieno[3.4-b:4'.3'-elazepin], in the assay with NMRI-Mäusen, the median effective dose (ED50) was 10.6 mg/kg and the “Sedation R.W.” value is reported as 0,44. Further, in the assay with Kaninchens, the ED50 was found to be 0.22 mg/kg and the “Muskelrelaxation R.W.” value was 0,21. For the same compound, in the assay with Ratten [1], the ED50 amounted to 42 mg/kg and the “Methamphetaminantagonismus R.W.” value was 0,88.

As to `CN1CCN(C2=Nc3cscc3/C(=C/C#N)c3cscc32)CC1` [1b cis], in the assay with NMRI-Mäusen, the 50% effective dose (ED50) amounted to 5 mg/kg and the “Sedation R.W.” value is listed as 0,94. Further, in the assay with Kaninchens, the ED50 amounted to 0.22 mg/kg and the “Muskelrelaxation R.W.” value is 0,21. Moreover, in the assay on Ratten [1], the ED50 came out at 5.5 mg/kg and the “Methamphetaminantagonismus R.W.” value is reported as 6,72. In addition, in the assay on Ratten [2], the ED50 is 0.6 mg/kg and the “Zentral-anticholinerge Wirkung R.W.” value is 5,2.

Turning to `CN1CCN(C2=Nc3cscc3/C(=C\C#N)c3cscc32)CC1` [1b trans], in the assay on NMRI-Mäusen, the median effective dose (ED50) is > 21.5 mg/kg and the “Sedation R.W.” value is <0,22. Besides, in the assay with Kaninchens, the ED50 was > 1 mg/kg and the “Muskelrelaxation R.W.” value is on record as <0,046. In addition, in the assay with Ratten [1], the ED50 amounted to 77 mg/kg and the “Methamphetaminantagonismus R.W.” value is 0,48. Besides, in the assay with Ratten [2], the 50% effective dose (ED50) is 13 mg/kg and the “Zentral-anticholinerge Wirkung R.W.” value is 0,24.

As to `CN1CCN(C2=Nc3cscc3C(=CC#N)c3cscc32)CC1` [Beispiel 1a, 9-Cyanmethylen-5-(4-methyl-piperazin-1-yl)-dithieno-[3.4-b:4'.3'-e]azepin], in the assay on NMRI-Mäusen, the ED50 was found to be 7.4 mg/kg and the “Sedation R.W.” value is 0,64. In addition, in the assay with Kaninchens, the 50% effective dose (ED50) was determined as 0.14 mg/kg and the “Muskelrelaxation R.W.” value is on record as 0,33. In the assay with Ratten [1], the ED50 worked out at 5.1 mg/kg and the “Methamphetaminantagonismus R.W.” value is recorded as 7,25. In the assay with Ratten [2], the ED50 came out at 2.8 mg/kg and the “Zentral-anticholinerge Wirkung R.W.” value is 1,1.

As to `CN1CCN(C2=Nc3cc(Cl)ccc3Nc3ccccc32)CC1` [Clozapin, reference compound], in the assay on NMRI-Mäusen, the ED50 came to 4.7 mg/kg and the “Sedation R.W.” value is 1,0. In the assay with Kaninchens, the “Muskelrelaxation R.W.” value is reported as 1,0. In the assay on Ratten [1], the ED50 is 37 mg/kg and the “Methamphetaminantagonismus R.W.” value is 1,0. For the same compound, in the assay with Ratten [2], the ED50 was 3.1 mg/kg and the “Zentral-anticholinerge Wirkung R.W.” value is 1,0.

Consider `CN1CCN(C2=Nc3ccccc3Cc3ccccc32)CC1` [Perlapin, reference compound], for which, in the assay with NMRI-Mäusen, the ED50 was found to be 2.1 mg/kg and the “Sedation R.W.” value was 2,24. Further, in the assay with Kaninchens, the median effective dose (ED50) stood at 0.11 mg/kg and the “Muskelrelaxation R.W.” value was 0,42. In the assay with Ratten [1], the ED50 stood at 31 mg/kg and the “Methamphetaminantagonismus R.W.” value is listed as 1,2. In the assay on Ratten [2], the ED50 is 14 mg/kg and the “Zentral-anticholinerge Wirkung R.W.” value is on record as 0,22.

By ED50 is commonly meant the dose that gives a 50% effect, or the effect in half of the subjects.
